Measured values reported in patent US20070111251A1, “Chemical address tags” (priority 2003, published 2007).

Tested on: HeLa cells
Test: Kinetic imaging of NBD-triazine probe uptake and sequestration, fitted to nested two-compartment transport model
Type: cell-based
Settings: median over optimal solutions within 5% of the best fit
Experimental: In living cells, image data was simultaneously acquired with an automated, high-content, kinetic screening instrument equipped with an environmental chamber (see, e.g., V. C. Abraham, D. L. Taylor and J. R. Haskins, Trends in Biotechnology 22, 15 (2004); herein incorporated by reference in its entirety), as cells were incubated with the fluorescent molecules and after removal of extracellular probe. Data was analyzed off line, using an image analysis algorithm to measure the statistical pixel intensity distribution associated with fluorescence probe sequestration in the perinuclear region (see, e.g., FIG. 21; see also, e.g., G. J. Ding et al., Journal of Biological Chemistry 273, 28897 (1998); herein incorporated by reference in its entirety). Data was parametrized with a nested, two-compartment, transport model (see, e.g., W. E. Evans, J. J. Schentag and W. J. Jusko., Applied Pharmacokinetics: Principles of Therapeutic Drug Monitoring (Lippincott Williams & Wilkins, Vancouver, W.A., 1992); herein incorporated by reference in its entirety), using a statistical link function to relate the kinetic coefficient of variation (CV) of pixel intensities in the images with the concentration of probe in vesicles and cytoplasm. Optimal kinetic parameters fitting the experimental data for each probe to the system described by the two-compartment model and statistical link function were determined using the simulated annealing technique (see, e.g., M. Pincus., Oper. Res. 18, 1225 (1979); herein incorporated by reference in its entirety). The present invention is not limited to a particular mechanism. Indeed, an understanding of the mechanism is not necessary to practice the present invention.
To assess how well the model accounts for all the different kinetic traces acquired, a “PVE” (proportion of variance explained) by the model was calculated. The PVE is one minus the ratio of the sum of squared differences between observed and fitted values to the sum of squared differences between observed values and their mean. PVE values close to one indicate good fit to the nested two-compartment model. The average PVE across the probes was 0.92, with >50% of the probes yielded PVE values […]. The present invention is not limited to a particular mechanism. Indeed, an understanding of the mechanism is not necessary to practice the present invention.
Cell culture. HeLa cells were grown in RPMI+10% FCS in a 5% CO2 atmosphere at 37° C. and plated in 96-well plates at a density of 3000 cells/well 24 hours prior to the start of the experiment.
Kinetic Imaging. For influx experiments, cells on 96-well plates were switched to imaging media consisting of RPMI containing 1.0 mM Bromophenol Blue—a soluble, cell-impermeant chromophore used to suppress excitation and emission of extracellular (background) dye fluorescence-, 10 μM probe and 0.1 μM Hoescht 33258 to label the cell nuclei. Plates were then transferred to a KineticScan instrument (Cellomics, Inc., Pittsburgh, Pa.), which contains an environmentally controlled CO2/temperature/humidity chamber, and data was acquired with a 20× objective lens. Images acquisition began approximately 10 min after dye addition, using the Hoescht channel to acquire nuclear images and FITC channel to acquire the NBD image. Plate-scanning mode was used for scanning, in which the instrument builds time-stacks of images by scanning the plate multiple times, returning to the same site of the plate at every scan. For efflux experiments, dye-containing media was removed from the wells of the plate. The wells were washed twice with fresh RPMI medium, imaging media was added, and image acquisition restarted 7 min after the dye-containing media was removed. The last time points of the influx experiment served as the first time point of the efflux experiment. Plates were scanned for approximately two hours in the influx experiment and six hours for the efflux experiment, with each well imaged on average every 7 minutes. […]

median Pap(cyto) (apparent partition coefficient between extracellular medium and cytosol)	median Pap(ves) (apparent partition coefficient between cytosol and intracellular vesicles, k(ves)in/k(ves)out)	Structure (SMILES)
185.83	0.52	CCCCNc1nc(NCCCCCCNc2ccc([N+](=O)[O-])c3nonc23)nc(NCc2ccccc2)n1 [Compound A1]
13.18	13.98	CC(C)Nc1nc(NCCCCCCNc2ccc([N+](=O)[O-])c3nonc23)nc(NCc2ccccc2)n1 [Compound A2]
12.96	6.45	CCCCCCCCNc1nc(NCCCCCCNc2ccc([N+](=O)[O-])c3nonc23)nc(NCc2ccccc2)n1 [Compound A3]
7.72	29.83	CC1CCC(Nc2nc(NCCCCCCNc3ccc([N+](=O)[O-])c4nonc34)nc(NCc3ccccc3)n2)CC1 (stereo not drawn) [Compound A4]
19.23	12.11	CC1CCCCC1Nc1nc(NCCCCCCNc2ccc([N+](=O)[O-])c3nonc23)nc(NCc2ccccc2)n1 (stereo not drawn) [Compound A5]
151.26	0.30	O=[N+]([O-])c1ccc(NCCCCCCNc2nc(NCc3ccccc3)nc(NCC3CCCCC3)n2)c2nonc12 [Compound A6]
7.55	33.83	O=[N+]([O-])c1ccc(NCCCCCCNc2nc(NCc3ccccc3)nc(NC3CCCCC3)n2)c2nonc12 [Compound A7]
3.75	63.22	CC(C)CCNc1nc(NCCCCCCNc2ccc([N+](=O)[O-])c3nonc23)nc(NCc2ccccc2)n1 [Compound A8]
11.54	19.12	O=[N+]([O-])c1ccc(NCCCCCCNc2nc(NCCc3ccccn3)nc(NCc3ccccc3)n2)c2nonc12 [Compound A9]
262.28	0.31	CCCCNc1nc(NCCCCCCNc2ccc([N+](=O)[O-])c3nonc23)nc(NCc2cccc(OC)c2)n1 [Compound B1]
11.59	10.82	COc1cccc(CNc2nc(NCCCCCCNc3ccc([N+](=O)[O-])c4nonc34)nc(NC(C)C)n2)c1 [Compound B2]
3.43	31.61	CCCCCCCCNc1nc(NCCCCCCNc2ccc([N+](=O)[O-])c3nonc23)nc(NCc2cccc(OC)c2)n1 [Compound B3]
18.09	12.15	COc1cccc(CNc2nc(NCCCCCCNc3ccc([N+](=O)[O-])c4nonc34)nc(NC3CCC(C)CC3)n2)c1 (stereo not drawn) [Compound B4]
9.10	9.25	COc1cccc(CNc2nc(NCCCCCCNc3ccc([N+](=O)[O-])c4nonc34)nc(NC3CCCCC3C)n2)c1 (stereo not drawn) [Compound B5]
242.54	0.36	COc1cccc(CNc2nc(NCCCCCCNc3ccc([N+](=O)[O-])c4nonc34)nc(NCC3CCCCC3)n2)c1 [Compound B6]
12.22	11.80	COc1cccc(CNc2nc(NCCCCCCNc3ccc([N+](=O)[O-])c4nonc34)nc(NC3CCCCC3)n2)c1 [Compound B7]
9.79	23.66	COc1cccc(CNc2nc(NCCCCCCNc3ccc([N+](=O)[O-])c4nonc34)nc(NCCC(C)C)n2)c1 [Compound B8]
8.21	27.03	COc1cccc(CNc2nc(NCCCCCCNc3ccc([N+](=O)[O-])c4nonc34)nc(NCCc3ccccc3)n2)c1 [Compound B10]
10.25	22.06	CCCCNc1nc(NCCCCCCNc2ccc([N+](=O)[O-])c3nonc23)nc(NCc2ccc(OC)cc2)n1 [Compound C1]
239.41	1.03	COc1ccc(CNc2nc(NCCCCCCNc3ccc([N+](=O)[O-])c4nonc34)nc(NC(C)C)n2)cc1 [Compound C2]
5.74	26.52	CCCCCCCCNc1nc(NCCCCCCNc2ccc([N+](=O)[O-])c3nonc23)nc(NCc2ccc(OC)cc2)n1 [Compound C3]
22.58	9.87	COc1ccc(CNc2nc(NCCCCCCNc3ccc([N+](=O)[O-])c4nonc34)nc(NC3CCC(C)CC3)n2)cc1 (stereo not drawn) [Compound C4]
10.01	9.72	COc1ccc(CNc2nc(NCCCCCCNc3ccc([N+](=O)[O-])c4nonc34)nc(NC3CCCCC3C)n2)cc1 (stereo not drawn) [Compound C5]
19.15	11.94	COc1ccc(CNc2nc(NCCCCCCNc3ccc([N+](=O)[O-])c4nonc34)nc(NCC3CCCCC3)n2)cc1 [Compound C6]
12.58	12.01	COc1ccc(CNc2nc(NCCCCCCNc3ccc([N+](=O)[O-])c4nonc34)nc(NC3CCCCC3)n2)cc1 [Compound C7]
8.56	31.04	COc1ccc(CNc2nc(NCCCCCCNc3ccc([N+](=O)[O-])c4nonc34)nc(NCCC(C)C)n2)cc1 [Compound C8]
12.33	16.46	COc1ccc(CNc2nc(NCCCCCCNc3ccc([N+](=O)[O-])c4nonc34)nc(NCCc3ccccn3)n2)cc1 [Compound C9]
12.15	15.51	CCCCNc1nc(NCCCCCCNc2ccc([N+](=O)[O-])c3nonc23)nc(NCCc2ccc(OC)cc2)n1 [Compound D1]
149.28	1.53	COc1ccc(CCNc2nc(NCCCCCCNc3ccc([N+](=O)[O-])c4nonc34)nc(NC(C)C)n2)cc1 [Compound D2]
2.75	101.21	CCCCCCCCNc1nc(NCCCCCCNc2ccc([N+](=O)[O-])c3nonc23)nc(NCCc2ccc(OC)cc2)n1 [Compound D3]
